The values below come from article PMC9220351, “Evaluation of a Conformationally Constrained Indole Carboxamide as a Potential Efflux Pump Inhibitor in Pseudomonas aeruginosa” (Antibiotics, 2022).

The subject of the test is P. aeruginosa ATCC 27853 inner membrane potential. Kind of test: DiOC2 (3) membrane polarization assay. The note with it: Pseudomonas aeruginosa, ATCC27853; read-out: IC50 (DiOC2 (3) membrane polarization, Figure 4A). Type of test: cell-based, Pseudomonas aeruginosa. The protocol: RND efflux pumps couple the influx of protons from the proton gradient across the inner membrane to the efflux of drugs and other molecules. […] The effect of TXA09155 on the proton gradient of P. aeruginosa was assessed with a fluorescence-based 3,3′-diethyloxacarbocyanine iodide [DiOC2 (3)] assay that was developed to measure membrane potential changes in Gram-negative bacteria. DiOC2 (3) is a positively charged fluorescent dye that accumulates within cells in a charge-dependent manner, shifting its fluorescence spectrum from green to red at high concentrations due to concentration-dependent dye stacking. […] Azithromycin and CCCP were used as […] controls, respectively.
P. aeruginosa membrane polarization assays were conducted as described previously using strain ATCC 27853. […] DiOC2 (3) fluorescence was recorded in a microplate reader using 450 nm excitation and 670 nm emission (for red fluorescence). Background correction for each concentration of each compound was obtained from reading the fluorescence of compounds in the resuspension buffer without cells. After background correction, fluorescence was normalized to that of the vehicle (DMSO) only. After a 30 min incubation at 37 °C, DiOC2 (3) fluorescence was recorded using a SpectraMax iD5 spectrophotometer (Molecular Devices, San Jose, CA, USA) following excitation at 450 nm. […]

Molecules are shown by their SMILES.

The IC50 is the concentration that inhibits the measured activity by half. `N#CC(C#N)=NNc1cccc(Cl)c1` [CCCP, Carbonyl cyanide 3-chlorophenylhydrazone]: the IC50 came to 15 nM.
